From publication PMC4183567, “Cysteine Transport through Excitatory Amino Acid Transporter 3 (EAAT3)” (PLoS ONE, 2014)
Like-named read-outs stand apart in the source and are kept apart here.

Assays:
EAAT2 [1] = target: T1, EAAT2 (Homo sapiens, UniProt P43004); experiment: mEGFPpH fluorescence imaging of intracellular pH in HEK293 cells co-expressing EAAT2; assay type: cell-based; design: expressed in transfected cells; host or cells: HEK293; conditions: for mEGFPpH fluorescence change: 1 mM perfusion
Excerpt: (§6) Cells expressing mEGFPpH were imaged with a Zeiss Axiovert 135T inverted microscope with a 40X NeoFluar oil immersion objective (NA1.3). A Lambda DG4 (Sutter Instrument Co.) equipped with a xenon arc lamp was used for high-speed excitation wavelength switching. Images were collected using either a Quantix (Roper Scientific, Tucson, AZ) or an Orca ER (Hammamatsu Co.) cooled CCD. For pH imaging experiments, the fluorescence filters (Omega Optical) were: excitation 405±20 and 485±7.5; dichroic 400-480-585DLRP; emission 510±11.5. Software control and data acquisition were accomplished using Axon Imaging Workbench (INDEC Biosystems) or OpenLab acquisition software (Improvision, Perkin Elmer). Cells were incubated at room temperature with continuous perfusion using standard buffer containing (in mM): 146 NaCl, 5 KCl, 5 HEPES, 2.5 CaCl2 and 1.2 MgCl2 at pH 7.35 with additions (substrates etc.) as indicated in figure legends. Acquisition exposure times were identical for both 405 nm and 485 nm excitation wavelengths adjusted so that the 510 emission was not saturated for either excitation wavelength. Prior to perfusion with buffers containing substrates, cells were perfused in standard buffer to achieve a stable base line. Fluorescence was reported as the ratio of fluorescence at 510 nm by excitation with 485 and 405 nm wavelengths (F485/F405).

EAAT3 [2] = target: T2, EAAT3 (Homo sapiens, UniProt P43005); experiment: Glutamate inhibition of [35S]-L-cysteine uptake in Xenopus oocytes expressing EAAT3; assay type: cell-based; design: expressed in transfected cells; host or cells: HEK293
T2 sequence (P43005 1-524): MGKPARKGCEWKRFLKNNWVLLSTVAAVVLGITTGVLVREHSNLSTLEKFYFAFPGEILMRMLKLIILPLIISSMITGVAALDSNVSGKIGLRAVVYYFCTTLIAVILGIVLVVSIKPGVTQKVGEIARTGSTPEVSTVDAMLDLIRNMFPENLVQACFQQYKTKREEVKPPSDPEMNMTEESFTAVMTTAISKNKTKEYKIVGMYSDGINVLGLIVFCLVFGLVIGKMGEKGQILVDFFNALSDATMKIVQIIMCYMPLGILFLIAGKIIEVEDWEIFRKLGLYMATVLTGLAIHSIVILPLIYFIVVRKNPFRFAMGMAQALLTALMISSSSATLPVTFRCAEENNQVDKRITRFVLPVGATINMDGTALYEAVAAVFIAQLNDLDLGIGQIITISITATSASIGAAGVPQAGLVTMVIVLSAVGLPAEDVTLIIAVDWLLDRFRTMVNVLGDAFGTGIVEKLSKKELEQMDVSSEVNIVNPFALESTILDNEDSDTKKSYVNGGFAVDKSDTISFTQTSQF
Protocol: (§1) mRNA from linearized pOTV-EAAT1, pOTV-EAAT2 and pOTV-EAAT3 was generated as previously described and resuspended in RNAase-free water and used for oocytes injections. Xenopus oocytes where injected with 50 nl of mRNA and incubated at 18°C in 96 mM NaCl, 2 mM KCl, 1.8 mM CaCl2, 1.0 mM MgCl2, 5 mM HEPES, pH 7.4 (ND96) supplemented with 2.5 mM Sodium Pyruvate and Gentamicyn for 2 to 3 days prior to using in electrophysiological recordings and radio-labeled transport experiments.
Cysteine transport was measured for 10 min in Xenopus oocytes with serial dilution of a mixture of 10 mM cysteine and 20 nM [^35S]-L-cysteine in ND96. Transport was terminated by three washes of ND96, after which accumulated radiolabel was quantitated by liquid scintillation counting. […] Transport was terminated by three washes in ND96 followed by liquid scintillation counting.

EAAT3 [3] = target: T2, EAAT3; experiment: Substrate-gated anion (NO3) currents in Xenopus oocytes expressing EAAT3; assay type: cell-based; conditions: 1 mM substrate; for anion current amplitude at +60 mV: NO3-based solution, Figure 2C, n = 4
Protocol: as §1
(§2) Oocytes were held at −60 mV, and currents elicited by 200 ms voltage steps between −120 mV and +60 mV were filtered at 2 kHz (−3dB) and digitalized with a sampling rate of 10 kHz using a Digidata AD/DA converter (Molecular Devices, Sunnyvale, CA, USA). Borosilicate pipets where filled with 3 M KCl and typical resistances where 0.2 to 1 MΩ. Transport currents were determined at −60 mV in a gluconate-based ND96 solution. In order to dialyze internal chloride, oocytes were incubated 12 to 24 hours in the gluconate solution. Anion currents were determined at positive potentials (+60 mV) after exchanging the external solution to NO3-based ND96 (replacement of 96 mM NaCl with 96 mM NaNO3) solution in the absence or in the presence of 1 mM external substrates. In experiments using cysteine as a substrate, all solutions contained 2 mM dithiothreitol (DTT). Data were analyzed with a combination of pClamp 9.2 (Axon Instrument) and Sigma Plot (Jandel Scientific, San Rafael, CA, USA). Whole cell current amplitudes are shown without any subtraction protocol. Current-voltage relationships were constructed by plotting the isochronal current 6 ms after the voltage step versus the membrane potential. All data are given as the mean ± standard deviation of the mean (SDM). For evaluation the statistical relevance, the Student’s t-Test was used with an α of 0.05.

EAAT3 and ASCT1 [4] = target: T3, EAAT3 and ASCT1 (Homo sapiens, UniProt P43005); experiment: Release of preloaded [3H]-L-glutamate from Xenopus oocytes co-expressing EAAT3 and ASCT1; assay type: cell-based; conditions: 100 µM extracellular substrate
T3 construct: expressed in transfected cells; host or cells: Xenopus oocytes
T3 sequence (P43005 1-524): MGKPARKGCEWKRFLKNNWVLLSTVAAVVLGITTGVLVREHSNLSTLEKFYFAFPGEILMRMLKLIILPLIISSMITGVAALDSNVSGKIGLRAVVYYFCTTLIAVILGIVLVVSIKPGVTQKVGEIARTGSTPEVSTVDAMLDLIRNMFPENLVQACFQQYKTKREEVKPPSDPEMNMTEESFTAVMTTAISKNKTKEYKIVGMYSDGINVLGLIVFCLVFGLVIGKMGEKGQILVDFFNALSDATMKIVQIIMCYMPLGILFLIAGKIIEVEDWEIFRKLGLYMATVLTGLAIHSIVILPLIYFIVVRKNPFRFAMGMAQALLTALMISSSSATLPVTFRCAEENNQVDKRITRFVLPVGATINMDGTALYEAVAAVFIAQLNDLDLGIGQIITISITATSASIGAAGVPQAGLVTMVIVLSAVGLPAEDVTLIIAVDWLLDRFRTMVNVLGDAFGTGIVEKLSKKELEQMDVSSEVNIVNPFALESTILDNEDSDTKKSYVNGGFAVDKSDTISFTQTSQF
Protocol: as §1
(§3) Oocytes were washed 3 times in ND96 buffer followed by incubation for 10 min with non-radiolabeled substrates as indicated. The supernatant was removed and collected for scintillation counting, while the oocytes were lysed in 1% sodium dodecylsulfate (SDS). The oocytes lysate and supernatant were counted separately by liquid scintillation counting to determine both retained and released radioactivity respectively. Percent of released radioactivity was determined as a function of the released/(retained + released).

EAAT3 and ASCT1 [5] = experiment: Substrate-gated NO3 currents in Xenopus oocytes co-expressing EAAT3 and ASCT1; assay type: cell-based, human; conditions: 1 mM substrate, oocytes co-expressing EAAT3 and ASCT1, n = 4
Protocol: as §1
as §2, with “In experiments using cysteine as a substrate, all solutions contained 2 mM dithiothreitol (DTT).” left out, “Whole cell current amplitudes are shown without any subtraction protocol. Current-voltage relationships were constructed by plotting the isochronal current 6 ms after the voltage step versus the membrane potential. All data are given as the mean ± standard deviation of the mean (SDM). For evaluation the statistical relevance, the Student’s t-Test was used with an α of 0.05.” left out

EAAT3 and ASCT1 [6] = target: T3, EAAT3 and ASCT1; experiment: Release of preloaded [35S]-L-cysteine from Xenopus oocytes co-expressing EAAT3 and ASCT1; assay type: cell-based; conditions: 100 µM extracellular substrate, 10 min
Protocol: mRNA from linearized pOTV-EAAT1, pOTV-EAAT2 and pOTV-EAAT3 was generated as previously described and resuspended in RNAase-free water and used for oocytes injections.
as §3

EAAT3 [7] = target: T2, EAAT3; experiment: mEGFPpH fluorescence imaging of intracellular pH in HEK293 cells co-expressing EAAT3; conditions: EAAT3 HEK293 cells
Excerpt: as §6

[8] = amino acid side chain; cited from earlier work
EAAT2 [9] = target: T1, EAAT2; experiment: Substrate inhibition of [3H]-L-glutamate uptake in HEK293 cells expressing EAAT2; assay type: cell-based; design: expressed in transfected cells; host or cells: HEK293
Protocol: (§4) For radiolabeled transport experiments, 2×10^6 cells were transfected in 1 mL of Opti-Mem (Life Technologies) using 6 µL of Lipofectamine 2000 (Invitrogen) with 1 µg pCMV-EAAT2 or pCMV-EAAT3 DNA and plated at 5×10^4 cells/well in 24 well Costar (Corning) plates with 0.5 mL DMEM culture media prepared as above. Following transfection and plating, cells were cultured 2–3 days prior to [^3H]-L-Glutamate transport experiments.
(§5) Transport was allowed to proceed for 10 min and was terminated by 3 washes with cold perfusion buffer. Cells were lysed with 1% SDS/0.1N NaOH and radioactivity determined by scintillation counting. Data analysis was performed using Graphpad Prism (Graphpad Software Inc.).

[10] = Protonation state calculated with the Henderson-Hasselbalch equation; assay type: physicochemical; conditions: physiological pH
EAAT2 [11] = target: T1, EAAT2; experiment: Two-electrode voltage clamp transport currents in Xenopus oocytes expressing EAAT2; assay type: cell-based; conditions: 1 mM substrate vs 1 mM glutamate, -60 mV
Protocol: as §1
as §2, with “In experiments using cysteine as a substrate, all solutions contained 2 mM dithiothreitol (DTT).” left out, “Whole cell current amplitudes are shown without any subtraction protocol. Current-voltage relationships were constructed by plotting the isochronal current 6 ms after the voltage step versus the membrane potential. All data are given as the mean ± standard deviation of the mean (SDM). For evaluation the statistical relevance, the Student’s t-Test was used with an α of 0.05.” left out

EAAT1 = target: T4, EAAT1 (Homo sapiens, UniProt P43003); experiment: Two-electrode voltage clamp transport currents in Xenopus oocytes expressing EAAT1; assay type: cell-based; conditions: 1 mM substrate vs 1 mM glutamate, -60 mV
T4 construct: expressed in transfected cells; host or cells: Xenopus oocytes injected with mRNA
Protocol: as §1
as §2, with “In experiments using cysteine as a substrate, all solutions contained 2 mM dithiothreitol (DTT).” left out, “Whole cell current amplitudes are shown without any subtraction protocol. Current-voltage relationships were constructed by plotting the isochronal current 6 ms after the voltage step versus the membrane potential. All data are given as the mean ± standard deviation of the mean (SDM). For evaluation the statistical relevance, the Student’s t-Test was used with an α of 0.05.” left out

EAAT3 [12] = target: T2, EAAT3; experiment: Two-electrode voltage clamp transport currents in Xenopus oocytes expressing EAAT3; assay type: cell-based
Protocol: as §1, §2

EAAT3 [13] = target: T2, EAAT3; experiment: Substrate inhibition of [3H]-L-glutamate uptake in HEK293 cells expressing EAAT3; assay type: cell-based; design: expressed in transfected cells; host or cells: HEK293
Protocol: as §4, §5

T1 sequence (P43004 whole entry, the tested form may be a part): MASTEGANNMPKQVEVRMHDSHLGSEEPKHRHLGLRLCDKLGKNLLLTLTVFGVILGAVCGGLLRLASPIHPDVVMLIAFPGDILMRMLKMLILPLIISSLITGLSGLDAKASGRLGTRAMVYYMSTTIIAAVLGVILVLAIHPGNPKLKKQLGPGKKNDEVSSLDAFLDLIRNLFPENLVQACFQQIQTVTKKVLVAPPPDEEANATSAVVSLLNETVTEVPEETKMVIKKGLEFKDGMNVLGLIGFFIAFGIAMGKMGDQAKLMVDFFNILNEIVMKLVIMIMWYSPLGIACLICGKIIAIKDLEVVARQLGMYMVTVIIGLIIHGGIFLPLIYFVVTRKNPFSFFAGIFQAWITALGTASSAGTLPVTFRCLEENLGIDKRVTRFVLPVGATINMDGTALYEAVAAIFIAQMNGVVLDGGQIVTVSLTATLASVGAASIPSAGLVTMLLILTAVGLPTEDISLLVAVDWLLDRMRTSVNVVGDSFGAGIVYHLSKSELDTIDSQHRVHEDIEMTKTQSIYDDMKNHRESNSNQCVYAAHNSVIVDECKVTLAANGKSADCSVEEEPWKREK
T4 sequence (P43003 whole entry): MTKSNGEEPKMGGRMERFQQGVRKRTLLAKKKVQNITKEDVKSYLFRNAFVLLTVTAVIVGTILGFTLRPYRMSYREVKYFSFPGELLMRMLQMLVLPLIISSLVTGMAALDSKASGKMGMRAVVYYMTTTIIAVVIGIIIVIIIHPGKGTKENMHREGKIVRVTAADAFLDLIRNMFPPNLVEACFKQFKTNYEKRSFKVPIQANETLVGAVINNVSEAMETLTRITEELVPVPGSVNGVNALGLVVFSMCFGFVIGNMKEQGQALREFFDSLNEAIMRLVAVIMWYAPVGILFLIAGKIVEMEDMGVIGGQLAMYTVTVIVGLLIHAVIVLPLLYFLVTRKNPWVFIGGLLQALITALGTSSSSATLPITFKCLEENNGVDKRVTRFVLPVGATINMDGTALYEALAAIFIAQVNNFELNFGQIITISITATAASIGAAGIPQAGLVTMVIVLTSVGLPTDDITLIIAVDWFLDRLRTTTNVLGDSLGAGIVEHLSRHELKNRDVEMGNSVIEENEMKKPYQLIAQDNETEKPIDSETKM

In the case of `N[C@@H](CCC(=O)O)C(=O)O` [glutamate, L-glutamate], the mEGFPpH fluorescence change (EAAT2 [1]) is reported as “significant quench of mEGFPpH fluorescence”, the inhibition at 100 µM (EAAT3 [2]; pH 6.9, read-out: inhibition of cysteine transport) is reported as 40% and the inhibition at 100 µM (EAAT3 [2]; pH 6.9, read-out: inhibition of cysteine uptake) is reported as ~75%. For the same compound, the “anion current amplitude at +60 mV” value (EAAT3 [3]) was 1.78±0.4 µA, the “average anion current amplitude at +60 mV” value (EAAT3 [3]; NaNO3, oocytes expressing EAAT3 alone, Figure 7C, n = 6) was 2.2±0.12 µA and the “release of loaded [3H]-L-glutamate” value (EAAT3 and ASCT1 [4]) was 5%. For the same compound, the “macroscopic anion current amplitude at +60 mV” value (EAAT3 and ASCT1 [5]) was 1.1±0.1 µA, the “release of preloaded [35S]-L-cysteine” value (EAAT3 and ASCT1 [6]) was “less than 2%” and the mEGFPpH fluorescence change (EAAT3 [7]; 0.5 µM perfusion) was “no observable fluorescence changes from baseline”. The mEGFPpH fluorescence change (EAAT3 [7]; 1 mM perfusion) was “fluorescence decrease”.

In the case of `N[C@@H](C[SeH])C(=O)O` [selenocysteine, L-selenocysteine], the “side chain pKa” value [8] is listed as 5.3, the mEGFPpH fluorescence change (EAAT2 [1]) is listed as “fluorescence decrease similar in magnitude to that observed for glutamate” and the “slope of fluorescence change normalized to that of 100 µM glutamate” value (EAAT2 [1]; selenocysteine at 100 µM) is listed as 0.85±0.02. For the same compound, the “anion current amplitude at +60 mV” value (EAAT3 [3]) was 1.72±0.4 µA, the IC50 (EAAT2 [9]) was 46 ± 12 µM and the inhibition at 1000 µM (EAAT2 [9]; HEK293, read-out: inhibition of glutamate transport) was ~90%. The “fraction in deprotonated state” value [10] was > 99%, the “transport current amplitude relative to glutamate transport current” value (EAAT2 [11]) was 72.1±17% and the “transport current amplitude relative to glutamate transport current” value (EAAT1) was 89.5±6.7%. For the same compound, the mEGFPpH fluorescence change (EAAT3 [7]; 1 mM perfusion) was “fluorescence decrease”, the “slope of fluorescence change normalized to that of 100 µM glutamate” value (EAAT3 [7]; selenocysteine at 100 µM, cysteine change opposite in direction) was 0.86±0.03 and the inward transport current (EAAT3 [12]; 1 µM selenocysteine perfusion, Figure 2A) was 20 nA. The “transport current amplitude relative to glutamate transport current” value (EAAT3 [12]; 1 mM substrate vs 1 mM glutamate, EAAT3 oocytes, -60 mV) was 95.6±14%, the IC50 (EAAT3 [13]) was 71 ± 10 µM and the “fold lower IC50 than for cysteine” value (EAAT3 [13]; EAAT3 HEK293 cells) was “approximately 10 fold”. The inhibition at 1000 µM (EAAT3 [13]; HEK293, read-out: inhibition of glutamate uptake) was > 90%.
